The structures appear in SMILES notation. Like-named read-outs stand apart in the source and are kept apart here. Bounds are passed on as bounds.

What all share (assay type): cell-based
Test [1] deals with phosphorylation of AKT (pAKT) in T47D cells expressing mutant PI3Ka (H1047R). Kind of test: In vitro cell pAKT (Ser473) HTRF, T47D cells. The note with it: cellular pAKT, T47D cells, mutant PI3Ka (H1047R), 6 hours, read-out: Avg T-47D IC50. The method in brief: (§1)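 pAKT (Ser473) was quantified by HTRF in lysates from cells exposed 6 h at 37 °C to 10-point compound series, with T47D in insulin-supplemented RPMI/10% FBS and SKBR3 in McCoy's 5a/10% FBS. Controls: 0.1% DMSO (high) and 10 uM alpelisib (low). IC50 from sigmoidal curve fitting.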
(TR-FRET usually uses a lanthanide donor and a delayed reading to cut background.)

Test [2] deals with T47D cells expressing mutant PI3Ka (H1047R). As to the kind of experiment: In vitro cell proliferation, T47D cells (CellTiter-Glo). The note with it: inhibition of proliferation, read-out: Avg T-47D EC50. Summed up:
(§2)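 EC50 values derive from a four-parameter logistic fit of luminescence-based (CellTiter-Glo) inhibition, referenced to 0.1% DMSO and 10 uM Alpelisib controls. Compound exposure lasted 72 h at 37 °C.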

In test [3] the test system is SKBR3 cells express WT PI3Ka. As to the kind of experiment: In vitro cell proliferation, SKBR3 cells (CellTiter-Glo). The note with it: inhibition of proliferation. The method in brief: as §2
Background: ATP-based viability assays read luminescence as a measure of living cells.

For test [4], the system named is phosphorylation of AKT (pAKT) in SKBR3 cells express WT PI3Ka. Kind of test: In vitro cell pAKT (Ser473) HTRF, SKBR3 cells. The following applies: cellular pAKT. Summed up: as §1

For the compound `Cc1cc(C(C)Nc2ccccc2C(=O)O)c2cc(N3CC[C@H](c4ccccc4)C3)n(C)c(=O)c2c1` (stereo partly shown) [Example 64], the IC50 was 0.001 to 0.5 µM in test [1] (Homo sapiens, T47D, 6 h) and over 15 µM in test [4] (Homo sapiens, SK-BR-3, 6 h). The EC50 was 0.5 to 2 µM in test [2] (Homo sapiens, T47D, 72 h) and over 15 µM in test [3] (Homo sapiens, SK-BR-3, 72 h).

With `Cc1cc(C(C)Nc2ccccc2C(=O)O)c2cc(N3Cc4cccnc4C3)n(C)c(=O)c2c1` (stereo not shown) [Example 65], the half-inhibitory concentration (IC50) in test [1] (Homo sapiens, T47D, 6 h) is 0.001 to 0.5 µM; in test [4] (Homo sapiens, SK-BR-3, 6 h) it was over 15 µM. For the same compound, the EC50 in test [2] (Homo sapiens, T47D, 72 h) is 0.5 to 2 µM; in test [3] (Homo sapiens, SK-BR-3, 72 h), over 15 µM.

In the case of `Cc1cc(C(C)Nc2ccccc2C(=O)O)c2cc(N3Cc4ccncc4C3)n(C)c(=O)c2c1` (stereo not shown) [Example 66], the IC50 is 0.001 to 0.5 µM in test [1] (Homo sapiens, T47D, 6 h) and over 15 µM in test [4] (Homo sapiens, SK-BR-3, 6 h). Also, the EC50 in test [2] (Homo sapiens, T47D, 72 h) is 0.001 to 0.5 µM; in test [3] (Homo sapiens, SK-BR-3, 72 h), over 15 µM.

As for `Cc1cc(C(C)Nc2ccccc2C(=O)O)c2cc(N3Cc4cccc(C(F)(F)F)c4C3)n(C)c(=O)c2c1` (stereo not shown) [Example 67], the IC50 was 0.001 to 0.5 µM in test [1] and over 15 µM in test [4] (6 hours). Further, the EC50 in test [2] (72 hours) was 0.5 to 2 µM; in test [3] (72 hours) it was over 15 µM.

As to `Cc1cc(C(C)Nc2ccccc2C(=O)O)c2cc(-c3ccc(C)nc3)n(C)c(=O)c2c1` (stereo not shown) [Example 68], the half-maximal inhibitory concentration (IC50) was 0.001 to 0.5 µM in test [1] (Homo sapiens, T47D, 6 h) and over 15 µM in test [4] (Homo sapiens, SK-BR-3, 6 h). In addition, the EC50 in test [2] (Homo sapiens, T47D, 72 h) is 0.5 to 2 µM; in test [3] (Homo sapiens, SK-BR-3, 72 h), over 15 µM.

In the case of `Cc1cc(C(C)Nc2ccccc2C(=O)O)c2cc(N3C4CCCC3CC4)n(C)c(=O)c2c1` (stereo not shown) [Example 69], the IC50 is 0.001 to 0.5 µM in test [1] (Homo sapiens, T47D, 6 h) and over 15 µM in test [4] (Homo sapiens, SK-BR-3, 6 h). In addition, the half-maximal effective concentration (EC50) in test [2] (Homo sapiens, T47D, 72 h) was 0.5 to 2 µM; in test [3] (Homo sapiens, SK-BR-3, 72 h), over 15 µM.

With `Cc1cc(C(C)Nc2ccccc2C(=O)O)c2cc(N3C[C@@H]4[C@@H](C#N)[C@@H]4C3)n(C)c(=O)c2c1` (stereo partly shown) [Example 70], the IC50 is 0.5 to 2 µM in test [1] (Homo sapiens, T47D, 6 h) and over 15 µM in test [4] (Homo sapiens, SK-BR-3, 6 h). Besides, the EC50 was 0.5 to 2 µM in test [2] (Homo sapiens, T47D, 72 h) and over 15 µM in test [3] (Homo sapiens, SK-BR-3, 72 h).

As to `Cc1cc(C(C)Nc2ccc(Cl)nc2C(=O)O)c2cc(N3Cc4ccc(F)cc4C3)n(C)c(=O)c2c1` (stereo not shown) [Example 71], the half-inhibitory concentration (IC50) in test [1] (Homo sapiens, T47D, 6 h) was in the range of 0.001 to 0.5 µM; in test [4] (Homo sapiens, SK-BR-3, 6 h), 2 to 15 µM. In addition, the EC50 in test [2] (Homo sapiens, T47D, 72 h) was 0.5 to 2 µM; in test [3] (Homo sapiens, SK-BR-3, 72 h), over 15 µM.

For `Cc1cc(C(C)Nc2ccccc2C(=O)O)c2cc(N3Cc4cncnc4C3)n(C)c(=O)c2c1` (stereo not shown) [Example 72], the concentration for half-maximal inhibition (IC50) is 0.5 to 2 µM in test [1] (Homo sapiens, T47D, 6 h) and over 15 µM in test [4] (Homo sapiens, SK-BR-3, 6 h). Moreover, the 50% effective concentration (EC50) in test [2] (Homo sapiens, T47D, 72 h) was 2 to 15 µM; in test [3] (Homo sapiens, SK-BR-3, 72 h), over 15 µM.

As to `Cc1cc([C@@H](C)Nc2ccccc2C(=O)O)c2cc(N3C[C@H]4CN(CC(F)(F)F)C[C@H]4C3)n(C)c(=O)c2c1` [Example 73], the IC50 in test [1] (Homo sapiens, T47D, 6 h) was 0.001 to 0.5 µM; in test [4] (Homo sapiens, SK-BR-3, 6 h), over 15 µM. For the same compound, the concentration giving a half-maximal response (EC50) is 0.5 to 2 µM in test [2] (Homo sapiens, T47D, 72 h) and over 15 µM in test [3] (Homo sapiens, SK-BR-3, 72 h).

`Cc1ccc(-c2cc3c(C(C)Nc4ccccc4C(=O)O)cc(C)cc3c(=O)n2C)nc1` (stereo not shown) [Example 74]: the IC50 in test [1] (Homo sapiens, T47D, 6 h) was 0.5 to 2 µM; in test [4] (Homo sapiens, SK-BR-3, 6 h) it was over 15 µM. For the same compound, the EC50 in test [2] (Homo sapiens, T47D, 72 h) was 2 to 15 µM; in test [3] (Homo sapiens, SK-BR-3, 72 h) it was over 15 µM.

On to `Cc1cc(C(C)Nc2ccccc2C(=O)O)c2cc(-c3cc4ccc(F)cc4[nH]3)n(C)c(=O)c2c1` (stereo not shown) [Example 75], for which the IC50 was 0.001 to 0.5 µM in test [1] (Homo sapiens, T47D, 6 h) and over 15 µM in test [4] (Homo sapiens, SK-BR-3, 6 h). Moreover, the EC50 in test [2] (Homo sapiens, T47D, 72 h) is 0.5 to 2 µM; in test [3] (Homo sapiens, SK-BR-3, 72 h) it was over 15 µM.

As to `Cc1cc(C(C)Nc2ccccc2C(=O)O)c2cc(N3Cc4cc(F)cc(F)c4C3)n(C)c(=O)c2c1` (stereo not shown) [Example 84], the IC50 was 0.001 to 0.5 µM in test [1] (Homo sapiens, T47D, 6 h) and over 15 µM in test [4] (Homo sapiens, SK-BR-3, 6 h). The EC50 in test [2] (Homo sapiens, T47D, 72 h) is 0.5 to 2 µM; in test [3] (Homo sapiens, SK-BR-3, 72 h), over 15 µM.

For `Cc1cc(C(C)Nc2ccccc2C(=O)O)c2cc(N3CC4CCC(C4)C3)n(C)c(=O)c2c1` (stereo not shown) [Example 85], the IC50 in test [1] (Homo sapiens, T47D, 6 h) is 0.001 to 0.5 µM; in test [4] (Homo sapiens, SK-BR-3, 6 h), 2 to 15 µM. The concentration for a half-maximal effect (EC50) in test [2] (Homo sapiens, T47D, 72 h) is 0.001 to 0.5 µM; in test [3] (Homo sapiens, SK-BR-3, 72 h), over 15 µM.

In the case of `Cc1cc(C(C)Nc2ccccc2C(=O)O)c2cc(N3CCc4ncncc4C3)n(C)c(=O)c2c1` (stereo not shown) [Example 86], the concentration for half-maximal inhibition (IC50) in test [1] (Homo sapiens, T47D, 6 h) is 0.5 to 2 µM; in test [4] (Homo sapiens, SK-BR-3, 6 h), over 15 µM. Further, the concentration giving a half-maximal response (EC50) was 2 to 15 µM in test [2] (Homo sapiens, T47D, 72 h) and over 15 µM in test [3] (Homo sapiens, SK-BR-3, 72 h).

Consider `CC(=O)N1C[C@@H]2CN(c3cc4c(C(C)Nc5ccccc5C(=O)O)cc(C)cc4c(=O)n3C)C[C@H]2C1` (stereo partly shown) [Example 87], for which the half-maximal inhibitory concentration (IC50) in test [1] (Homo sapiens, T47D, 6 h) is 2 to 15 µM; in test [4] (Homo sapiens, SK-BR-3, 6 h) it was over 15 µM. For the same compound, the EC50 was 2 to 15 µM in test [2] (Homo sapiens, T47D, 72 h) and over 15 µM in test [3] (Homo sapiens, SK-BR-3, 72 h).

One may read the IC50 as the concentration needed to halve the response being measured. As a reminder, the EC50 is the concentration giving half of the maximal effect.

For the origin of these results see US20260078103A1, “ISOQUINOLONES AS PI3K INHIBITORS” (OnKure, Inc., priority 2022, published 2026).
